In ChEMBL document CHEMBL3352546, “KDM4B as a target for prostate cancer: structural analysis and selective inhibition by a novel inhibitor” (J Med Chem, 2014):
Active and inactive are the calls of the source. The calls are words filed in the database; no cut-off is given here.

What was measured:
[1] = biological target: T1, Lysine-specific demethylase 4E (Homo sapiens) (UniProt B2RXH2); test: Inhibition of purified recombinant KDM4E (1 to 347 aa) (unknown origin) expressed in Escherichia coli using H3K9me3 peptide as substrate after 30 mins by FDH-coupled assay
T1 sequence (whole entry): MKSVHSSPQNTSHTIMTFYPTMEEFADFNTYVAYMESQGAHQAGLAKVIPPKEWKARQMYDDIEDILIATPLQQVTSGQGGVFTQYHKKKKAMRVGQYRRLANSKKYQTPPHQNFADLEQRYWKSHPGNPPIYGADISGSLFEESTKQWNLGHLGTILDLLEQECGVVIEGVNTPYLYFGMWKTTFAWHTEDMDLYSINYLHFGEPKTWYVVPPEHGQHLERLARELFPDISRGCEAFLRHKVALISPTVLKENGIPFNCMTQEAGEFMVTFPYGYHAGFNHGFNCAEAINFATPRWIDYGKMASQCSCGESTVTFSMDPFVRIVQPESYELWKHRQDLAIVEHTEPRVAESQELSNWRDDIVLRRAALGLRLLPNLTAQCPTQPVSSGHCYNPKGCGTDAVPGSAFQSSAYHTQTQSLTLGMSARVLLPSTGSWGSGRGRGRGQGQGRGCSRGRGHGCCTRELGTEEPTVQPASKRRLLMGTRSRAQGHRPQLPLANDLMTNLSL

[2] = tested on: LNCaP; test: Cytotoxicity against human LNCAP cells after 3 days by MTT assay; assay type: functional, cell-based; conditions: 72 h
[3] = biological target: T2, Lysine-specific demethylase 4D (Homo sapiens) (UniProt Q6B0I6); test: Inhibition of purified recombinant KDM4D (1 to 350 aa) (unknown origin) expressed in Escherichia coli using H3K9me3 peptide as substrate after 30 mins by FDH-coupled assay
T2 sequence (whole entry): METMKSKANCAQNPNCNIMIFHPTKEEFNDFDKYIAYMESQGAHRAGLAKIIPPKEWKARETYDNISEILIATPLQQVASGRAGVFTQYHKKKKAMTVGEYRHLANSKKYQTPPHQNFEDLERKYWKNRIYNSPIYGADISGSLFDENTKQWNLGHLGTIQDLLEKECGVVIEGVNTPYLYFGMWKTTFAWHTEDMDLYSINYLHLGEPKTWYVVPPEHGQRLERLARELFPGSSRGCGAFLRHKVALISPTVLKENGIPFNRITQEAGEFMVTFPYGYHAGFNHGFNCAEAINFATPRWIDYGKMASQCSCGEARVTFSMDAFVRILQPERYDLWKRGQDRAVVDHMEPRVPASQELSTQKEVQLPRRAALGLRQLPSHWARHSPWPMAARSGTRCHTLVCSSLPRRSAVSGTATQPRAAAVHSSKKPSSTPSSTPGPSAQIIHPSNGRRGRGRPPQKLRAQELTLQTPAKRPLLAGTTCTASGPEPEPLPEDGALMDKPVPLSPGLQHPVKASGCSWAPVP

[4] = Cytotoxicity against human PNT2 cells at 5 to 20 uM measured over 6 days by MTT assay; assay type: cell-based; conditions: pnt2, 144 h

SMILES | inhibition [1] | CC50 [2] | inhibition [3] | Activity [4]
O=C(O)c1ccnc(C(=O)O)c1 | Active | 589 µM | Active | 
O=[N+]([O-])c1cc([N+](=O)[O-])c(/C=C/c2ccc(Cl)c(Cl)c2)cc1/C=C/c1ccc(Cl)c(Cl)c1 | inactive |  | inactive | Non-toxic
